Test results published in patent EP4729529A1, “PREPARATION OF PEPTIDE INHIBITOR OF INTERLEUKIN-23 RECEPTOR AND USE THEREOF” (Xizang Haisco Pharmaceutical Co., Ltd., priority 2023, dated 2024).
Positions of bridges follow the written chain, without caps; N, C: chain ends. Non-standard residues stand in square brackets, D forms with d. Residues, ends and D or L forms follow the SMILES beside them. Phe(4-OC2H4NH2,2,3-(CH2)3) = NCCOc1ccc(C[C@H](N)C(=O)O)c2c1CCC2; Trp(7-cPr) = N[C@@H](Cc1c[nH]c2c(C3CC3)cccc12)C(=O)O; Trp(7-Me) = Cc1cccc2c(C[C@H](N)C(=O)O)c[nH]c12; 2Nal = N[C@@H](Cc1ccc2ccccc2c1)C(=O)O; Thp(SO2) = NC1(C(=O)O)CCS(=O)(=O)CC1; AEF = NCCOc1ccc(C[C@H](N)C(=O)O)cc1; 3Pal = N[C@@H](Cc1cccnc1)C(=O)O; Pen = CC(C)(S)[C@H](N)C(=O)O; Dab = NCC[C@H](N)C(=O)O; Thp = NC1(C(=O)O)CCOCC1; Sar = CNCC(=O)O

What was measured:
IL-23α/IL-12β and IL-23R = target: T1, IL-23α/IL-12β and IL-23R (Homo sapiens, UniProt Q5VWK5); assay: IL-23α/IL-12β and IL-23R binding assay (TR-FRET/HTRF); details: inhibition of the binding of IL-23α/IL-12β to IL-23R, TR-FRET; both proteins 0.3 nM
T1 construct: purchased ACRO ILR-H82F3 (IL-23R); ILB-H52W5 (IL-23α/IL-12β)
T1 sequence (Q5VWK5 24-353 limits assumed): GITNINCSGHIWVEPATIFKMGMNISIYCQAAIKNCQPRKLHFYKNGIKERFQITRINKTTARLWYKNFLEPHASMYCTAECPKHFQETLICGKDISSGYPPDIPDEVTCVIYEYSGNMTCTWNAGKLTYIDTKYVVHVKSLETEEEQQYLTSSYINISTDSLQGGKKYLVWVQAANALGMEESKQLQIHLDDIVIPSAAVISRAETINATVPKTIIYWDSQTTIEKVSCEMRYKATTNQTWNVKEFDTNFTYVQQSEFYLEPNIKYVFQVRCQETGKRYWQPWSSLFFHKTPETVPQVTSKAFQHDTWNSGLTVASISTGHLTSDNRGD
In short: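 TR-FRET with IL-23α/IL-12β and IL-23R each at 0.3 nM in PPI buffer; compound preincubated with IL-23α/IL-12β 60 min at 25°C, then IL-23R and Tb/d2 detection reagents added for 60 min. HTRF 665/620 ratio; IC50 by nonlinear regression.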

IL-23R = target: T2, IL-23R (Homo sapiens, UniProt Q5VWK5); assay: IL-23R reporter gene assay (HEK-blue IL23 reporter gene cell line, rhIL23 stimulation); assay type: cell-based; details: Inhibition of IL-23R, rhIL23 1 ng/mL, 24 hours
T2 construct: host or cells: HEK-blue IL23 reporter gene cell line
T2 sequence (Q5VWK5 24-629): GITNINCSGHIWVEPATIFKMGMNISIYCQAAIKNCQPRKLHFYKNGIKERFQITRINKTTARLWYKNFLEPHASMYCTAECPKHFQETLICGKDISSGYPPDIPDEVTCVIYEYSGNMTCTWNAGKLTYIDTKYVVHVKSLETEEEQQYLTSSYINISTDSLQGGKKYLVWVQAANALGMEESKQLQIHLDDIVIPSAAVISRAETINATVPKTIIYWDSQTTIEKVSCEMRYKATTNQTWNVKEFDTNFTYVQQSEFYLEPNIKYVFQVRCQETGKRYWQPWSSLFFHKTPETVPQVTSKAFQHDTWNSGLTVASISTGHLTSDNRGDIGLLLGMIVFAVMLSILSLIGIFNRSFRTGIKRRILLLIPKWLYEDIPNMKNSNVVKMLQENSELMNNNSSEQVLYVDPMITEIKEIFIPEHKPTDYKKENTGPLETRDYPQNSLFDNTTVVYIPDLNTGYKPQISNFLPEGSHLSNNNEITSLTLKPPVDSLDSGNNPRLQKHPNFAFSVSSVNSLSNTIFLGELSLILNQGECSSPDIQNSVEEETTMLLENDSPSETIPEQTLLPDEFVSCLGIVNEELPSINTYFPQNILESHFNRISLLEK
Procedure: 2. IL-23R reporter gene assay
The purpose of this assay was to assess the ability of compounds to inhibit the binding of IL23p19 to IL23R in a reporter gene system. The HEK-blue IL23 reporter gene cell line (Invivogen, hkb-il23) was cultured in DMEM + 10% FBS + 100 ug/mL Normocin medium. When the cell density reached 80%-90%, 5000 cells/well were plated into a 384-well plate, and the plate was incubated overnight at 37°C with 5% CO2. Then, the compound stock solution was diluted in DMSO, and 40 nL of the dilution was transferred into the 384-well culture plate by Echo. The plate was incubated at 37°C with 5% CO2 for 0.5 hours. 40 nL/well of rhIL23 (R&D, 1290-IL) was added to the 384-well cell culture plate at a final concentration of 1 ng/mL, and the plate was incubated at 37°C with 5% CO2 for 24 hours. 18 µL of Quanti-Blue™ solution was added to a new 384-well plate. 2 µL/well of cell culture supernatant was transferred into the 384-well plate prepared in Step 6, and the plate was incubated at 37°C with 5% CO2 for 1 hour. Absorbance values at […] were read on BMG. The binding ability of the compounds was assessed using the following formula, and IC50 values were obtained by fitting with Graphpad.
(§1) Calculation formula of inhibition rate: [formula] • where Data negative: mean of DMSO control group; and • Data positive: mean of non-IL23-stimulated group
The calculation formula of IC50 was as follows: Y = Bottom + (Top−Bottom)/(1+10^(∧)((LogIC50−X)*HillSlope)) [formula] • where X: concentration of compound; and • Y: inhibition rate of compound Table 2. Inhibition of IL-23R by test compounds

[1] = target: (Homo sapiens, UniProt Q5VWK5); assay: IL-23-stimulated pSTAT3 detection assay in PBMCs (ELISA); assay type: cell-based; details: rhIL23 stimulation 30 minutes, read-out: pSTAT3 inhibition/IC50
Procedure: 3. IL-23-stimulated pSTAT3 detection assay in PBMCs
Cryopreserved human PBMCs were thawed, and seeded onto a plate previously covered with an anti-CD3 antibody at 1 × 10^6 cells/well. Then, an anti-CD28 antibody was added to the plate, and the cells were incubated at 37°C with 5% CO2 for 5 days. On Day 5, the cells were seeded onto a 96-well plate at a density of 100K cells/well after 4 hours of stimulation by FBS starvation. The diluted Compound was transferred into the 96-well cell culture plate, and the plate was incubated at 37°C with 5% CO2 for 1 hour. rhIL23 (R&D, 1290-IL) was added to the cell culture plate, and the plate was incubated at 37°C with 5% CO2 for 30 minutes. The cells in the wells were lysed on ice with a lysis buffer containing 1× PHOSstop solution for 30 minutes, and the plate was centrifuged at 1000 rpm for 1 minute. Then, the supernatant was transferred into a 96-well ELISA plate, and pSTAT3 ELISA assay was performed according to the instructions of the kit (CST, 7300CA). Absorbance values at […] were read on PHERAstar FSX (BMG LRBTECH). The inhibition rate of the compounds was assessed using the following formula, and IC50 values were obtained by fitting with Graphpad.
as §1
The calculation formula of IC50 was as follows: Y = Bottom + (Top−Bottom)/(1+10^(∧)((LogIC50−X)*HillSlope)) [formula] • where X: concentration of compound; and • Y: inhibition rate of compound. Table 3. pSTAT3 inhibition

[2] = Pharmacokinetic test in mice (intravenous and intragastric, plasma LC-MS/MS); assay type: in vivo; details: male, mouse, Balb/c mice
Procedure: 4. Pharmacokinetic test in mice
4.1. Experimental animals: Male Balb/c mice (20-25 g, 18 mice/compound) were purchased from Chengdu Dossy Experimental Animals Co., Ltd.
4.2. Experimental design: On the day of the experiment, the Balb/c mice were randomly grouped by body weight. The animals were fasted with water available for 12-14 h one day before the administration, and were fed 4 h after the administration. Table 4. Administration information
Before and after administration, 0.06 mL of blood was taken from the orbit under isoflurane anaesthesia, and placed in an EDTAK2 centrifuge tube. The tube was centrifuged at 5000 rpm at 4°C for 10 min, and plasma was collected. The blood collection time points for the intravenous group and intragastric group were both 0 min, 5 min, 15 min, 30 min, 1 h, 2 h, 4 h, 6 h, 8 h, and 24 h. Before analysis and detection, all samples were stored at -80°C, and the samples were quantitatively analysed by LC-MS/MS. Table 5. Pharmacokinetic parameters of test compounds in mouse plasma

Chain of (Homo sapiens, UniProt Q5VWK5) (Q9NPF7 20-189 partner, other chains not shown): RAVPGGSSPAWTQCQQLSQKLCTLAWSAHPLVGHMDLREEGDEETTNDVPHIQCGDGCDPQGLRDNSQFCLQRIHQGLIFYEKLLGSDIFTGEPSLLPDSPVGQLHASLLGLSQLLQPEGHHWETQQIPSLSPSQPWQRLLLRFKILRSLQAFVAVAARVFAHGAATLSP
Chain of (Homo sapiens, UniProt Q5VWK5) (P29460 23-328 partner, other chains not shown): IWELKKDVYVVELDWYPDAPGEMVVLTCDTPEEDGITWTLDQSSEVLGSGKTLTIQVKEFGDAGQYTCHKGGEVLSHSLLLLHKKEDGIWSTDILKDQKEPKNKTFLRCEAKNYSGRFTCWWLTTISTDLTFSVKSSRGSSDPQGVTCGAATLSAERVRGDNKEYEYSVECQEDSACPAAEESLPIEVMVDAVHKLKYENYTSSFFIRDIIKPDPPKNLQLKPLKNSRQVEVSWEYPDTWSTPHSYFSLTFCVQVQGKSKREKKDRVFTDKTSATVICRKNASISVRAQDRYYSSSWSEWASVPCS

Row | SMILES | IC50 (IL-23α/IL-12β and IL-23R) | IC50 (IL-23R) | IC50 [1] | AUC(0-t) ([2]; iv, i.v. (1 mg/kg)) | clearance ([2]; iv, i.v. (1 mg/kg)) | Vd ([2]; iv, i.v. (1 mg/kg), read-out: Vdss) | AUC(0-t) ([2]; po, i.g. (10 mg/kg)) | bioavailability ([2]; po, i.g. (10 mg/kg))
1 | CC(=O)N[C@@H]1C(=O)N[C@@H](Cc2c[nH]cn2)C(=O)N[C@@H]([C@@H](C)O)C(=O)N[C@@H](Cc2c[nH]c3c(C4CC4)cccc23)C(=O)N[C@@H](CCC(N)=O)C(=O)N[C@H](C(=O)N[C@@H](Cc2ccc(OCCN)cc2)C(=O)N[C@@H](Cc2ccc3ccccc3c2)C(=O)NC2(C(=O)N[C@@H](CCC(=O)O)C(=O)N[C@@H](CC(N)=O)C(=O)N[C@@H](Cc3cccnc3)C(=O)N(C)CC(N)=O)CCOCC2)C(C)(C)SSC1(C)C [Compound 13] (Ac-[Pen]HT[Trp(7-cPr)]Q[Pen][AEF][2Nal][Thp]EN[3Pal][Sar]-NH2; disulfide 1-6) | 38.4 pM | 3120 pM | 1 pM | – | – | – | – | –
2 | CC(=O)N[C@@H]1C(=O)N[C@@H](Cc2c[nH]cn2)C(=O)N[C@@H]([C@@H](C)O)C(=O)N[C@@H](Cc2c[nH]c3c(C)cccc23)C(=O)N[C@@H](CCC(N)=O)C(=O)N[C@H](C(=O)N[C@@H](Cc2ccc(OCCN)c3c2CCC3)C(=O)N[C@@H](Cc2ccc3ccccc3c2)C(=O)NC2(C(=O)N[C@@H](CCC(=O)O)C(=O)N[C@@H](CC(N)=O)C(=O)N[C@@H](Cc3cccnc3)C(=O)N(C)CC(N)=O)CCS(=O)(=O)CC2)C(C)(C)SSC1(C)C [Compound 15] (Ac-[Pen]HT[Trp(7-Me)]Q[Pen][Phe(4-OC2H4NH2,2,3-(CH2)3)][2Nal][Thp(SO2)]EN[3Pal][Sar]-NH2; disulfide 1-6) | 75 pM | 5260 pM | 6.2 pM | – | – | – | – | –
3 | CC(=O)N[C@@H]1C(=O)N[C@@H](Cc2c[nH]cn2)C(=O)N[C@@H]([C@@H](C)O)C(=O)N[C@@H](Cc2c[nH]c3c(C4CC4)cccc23)C(=O)N[C@@H](CCC(N)=O)C(=O)N[C@H](C(=O)N[C@@H](Cc2ccc(OCCN)c3c2CCC3)C(=O)N[C@@H](Cc2ccc3ccccc3c2)C(=O)NC2(C(=O)N[C@@H](CCC(=O)O)C(=O)N[C@@H](CC(N)=O)C(=O)N[C@@H](Cc3cccnc3)C(=O)N(C)CC(N)=O)CCS(=O)(=O)CC2)C(C)(C)SSC1(C)C [Compound 16] (Ac-[Pen]HT[Trp(7-cPr)]Q[Pen][Phe(4-OC2H4NH2,2,3-(CH2)3)][2Nal][Thp(SO2)]EN[3Pal][Sar]-NH2; disulfide 1-6) | 63 pM | 6070 pM | 6.9 pM | 5440 ± 220 ng·h/mL | 3.06 ± 0.13 mL/min/kg | 0.378 ± 0.022 L/kg | 143 ± 13 ng·h/mL | 0.263 ± 0.023%
4 | CC(=O)N[C@H]1CC(=O)NCC[C@@H](C(=O)N[C@@H](Cc2ccc(OCCN)cc2)C(=O)N[C@@H](Cc2ccc3ccccc3c2)C(=O)NC2(C(=O)N[C@@H](CCC(=O)O)C(=O)N[C@@H](CC(N)=O)C(=O)N[C@@H](Cc3cccnc3)C(=O)N(C)CC(N)=O)CCOCC2)NC(=O)[C@H](CCC(N)=O)NC(=O)[C@H](Cc2c[nH]c3c(C)cccc23)NC(=O)[C@H]([C@@H](C)O)NC(=O)[C@H](Cc2c[nH]cn2)NC1=O [Compound 22] (Ac-DHT[Trp(7-Me)]Q[Dab][AEF][2Nal][Thp]EN[3Pal][Sar]-NH2; lactam 1-6) | 129 pM | – | 15.7 pM | – | – | – | – | –
